Measurements published in patent EP2329817A1, “Retinoic acid receptor antagonists, miR-10a inhibitors and inhibitors of HOXB1 or HOXB3 repressors for treating pancreatic cancer” (Ernst-Moritz-Arndt-Universität Greifswald, priority 2009, dated 2011).
Values joined by “and” are separate entries in the source; they are usually repeats but may differ in a detail not shown here. Identical values can stand only once.

System: PaTu-T cells
Assay: Zebrafish embryo xenotransplantation: invasion and metastatic behaviour of pretreated PaTu-T cells
Assay type: in vivo, human
Experimental: Zebrafish (Danio rerio) (Tuebingen line, AIB strain (Albinos) and Tg (fli1:eGFP) were handled in compliance with local animal care regulations and standard protocols of the Netherlands and Germany. Fish were kept at 28°C in aquaria with day/night light cycles (10 h dark versus 14 h light periods). The developing embryos were kept in an incubator at constant temperatures.
The selective RARα antagonist Ro-41-5253 was purchased from Biomol International, dissolved in DMSO and cells were treated overnight prior to injections at a final concentration of 200 nM (50% inhibition at 60nM)^14,15. Retinoic acid (ATRA, Sigma) was added to cells ON at a final concentration of 1 µM.
Cells were stained with CM-Dil (red fluorescence) at a 1:1000 dilution according to the manufacturers protocol (Vybrant, Invitrogen). Cells were suspended in 67% DPBS for injection into embryos. 2dpf zebrafish embryos were dechorionated and tranquilized with tricaine (Sigma). An injection needle (15µm diameter) with a manual injector (Eppendorf; Celltram Vario) was used to inject ∼200 cells into the yolk sac of 2dpf zebrafish embryos. On average 80 embryos were injected for each treatment and embryos with detectable cell scatter 2 h after the transfer (and therefore presumably due to the transfer procedure) were excluded from further analysis. Presence of cells was checked after 2 h incubation at 31°C and embryos were subsequently kept at 35°C. We defined metastasis based on the number of fluorescent cells that were detected outside the yolk sac 2 days after the transfer. Presence of 5 or more cells was considered "metastasised" and percentages of metastasised fish in each experiment were counted. The occurence of micro-metastasis is indicated by cell clusters of ≥4 cells presumably originating from cell division. PaTu-S cells and ASPC1 cells were transfected ON with indicated concentrations of miR-10a siRNA in the presence of ICA-Fectin TM442 (Eurogentec, Belgium). Whole cell lysates were prepared 36h post-transfection and 40 µg of total lysates were separated on 7.5% PAA-gels and blotted with anti E-cadherin, α-catenin, β-catenin (all mAbs, Transduction Labs) and actin antibodies (mAb Sigma-Aldrich, Germany).
Morpholino antisense oligonucleotides were obtained from Gene Tools, LLC (OR, USA) and used as previously described^19. The miR-10a antisense Morpholino sequence is: […]. Standard control Morpholino was […]. Both miR-10a and control Morpholinos were fluorescein labeled. The siRNAs for human HOXB1, human HOXB3 and human RARα were purchased from Santa Cruz Biotechnology (HOXB1: sc-38686, HOXB3: sc-38690 and RARα: sc-29465). EndoPorter (Gene Tools, LLC) was used to deliver Morpholinos and siRNAs into cells and efficiencies for Morpholinos were checked by fluorescence microscopy to be >98%. For the miR-10a siRNA, the sense strand corresponds to […]. The sequence of control siRNA (miR-196a) was […] with the corresponding antisense sequence). 30 µl of each siRNA oligo (50 µM) were annealed by gradually cooling from 98°C to 20°C in a volume of 75 µl annealing buffer (50 mM Tris, pH 7.8, 100 mM NaCl RNAse free). The effect of miR-10a Morpholinos on miR-10a function was tested with a sensor construct: pCS2+ EGFP 4x miR-10 AS containing 4 copies of a miR-10a antisense sequence.

[1] = Experiment 1, Day 1, number of embryos
[2] = Experiment 1, Day 2, number of embryos
[3] = Experiment 1, Day 3, number of embryos
[4] = Experiment 2, Day 1, number of embryos
[5] = Experiment 2, Day 2, number of embryos
[6] = Experiment 2, Day 3, number of embryos

CCCCCCCOc1cc2c(cc1/C(C)=C/c1ccc(C(=O)O)cc1)C(C)(C)CCS2(=O)=O [Ro-41-5253, Benzoic acid, 4-(2-(7-(heptyloxy)-3,4-dihydro-4,4-dimethyl-2H-1-benzothiopyran-6-yl)-1-propenyl)-, S,S-dioxide, (E)]
total >5 (Experiment 1, number of embryos (equals the Day 1 total)): 1 | Migration 5 to 20 [1]: 1 | Migration <5 [1]: 0 | Migration >20 [1]: 0 | total >5 [1]: 1 | Migration 5 to 20 [2]: 0 | Migration <5 [2]: 0 | Migration >20 [2]: 0 | total >5 [2]: 0 | Migration 5 to 20 [3]: 0 | Migration <5 [3]: 0 | Migration >20 [3]: 0 | total >5 [3]: 0 | total >5 (Experiment 1, summary line, percentage in brackets (of embryos alive)): 1.4% | total >5 (Experiment 2, number of embryos (equals the Day 1 total)): 2 | Migration 5 to 20 [4]: 2 | Migration <5 [4]: 0 | Migration >20 [4]: 0 | total >5 [4]: 2 | Migration 5 to 20 [5]: 2 | Migration <5 [5]: 0 | Migration >20 [5]: 0 | total >5 [5]: 2 | Migration 5 to 20 [6]: 0 | Migration <5 [6]: 0 | Migration >20 [6]: 0 | total >5 [6]: 0 | total >5 (Experiment 2, summary line, percentage in brackets (of embryos alive)): 2.9% | Average % (observed metastasised embryos) (Table 1, pretreated PaTu-T cells transplanted into zebrafish embryos, average of 2-4 experiments): 2.2% | %migration, Average (average of experiments, PaTu-T): 2.2% | %migration (single experiments, PaTu-T, listed as RARαinhibitor): 1.4% and 2.9%
